Data on two compounds can be found in patent publication US7091025B2, “Malathion carboxylesterase” (priority 1995, dated 2006).

Like-named read-outs stand apart in the source and are kept apart here.

Experiment [1] deals with malathion resistant strains of M. domestica, C. putoria and L. cuprina. As to conditions: literature, cited from earlier work.
In experiment [2] the target is Lucilia cuprina LcαE7 (esterase E3) gene product, malathion resistant allele (strain RM-8), Trp to Leu at position 251 (Lucilia cuprina, UniProt Q25252, W251L). Description: sensitivity of MCE activity to TPP, expressed malathion resistant LcαE7 product. As to conditions: TPP 8×10^−8M, preincubation 15, 30 or 45 minutes. The class given is biochemical.
Experiment [3] relates to MCE encoded by the malathion resistant allele of LcαE7. The experiment in a line: Sensitivity of MCE activity to TPP (titration/preincubation of cell extract). In kind it is biochemical, L. cuprina.
The subject of experiment [4] is MCE activity associated with malathion resistance in M. domestica, C. putoria and L. cuprina. As to conditions: literature; cited from earlier work.
The target of experiment [5] is Lucilia cuprina LcαE7 (esterase E3) gene product, malathion resistant allele, Trp to Leu at position 251 (Lucilia cuprina, UniProt Q25252, W251L). The experiment in a line: chlorfenvinphos hydrolysis, expressed malathion resistant LcαE7 product. In kind it is biochemical. The conditions noted are these: 75 μM CVP. The method, then:
The malathion resistant Lcα7 full-length cDNA was cloned into the baculovirus transfer vector, Bacpac 6 (Clonetech) 3′ of the polyhedrin promoter. Transfections were conducted using a lipofection method with DOTAP (Boehringer Mannheim) as per King and Possee (The Baculovirus Expression System: A Laboratory Guide, Chapman & Hall, London, 1992). One μg of DNA of each of the resulting constructs together with 200 ng of Bacpac 6 baculovirus DNA (Clonetech), linearised by digestion with the restriction enzyme BSU 36I (Promega), was incubated in a solution of HBS (hepes buffered saline) containing 15% DOTAP (Boehringer Mannheim) in a polystyrene container at room temperature for 10 minutes. The solution was then used to transfect a single well of a six well tissue culture plate pre-seeded 2 hrs previously with 10^4 Sf9 (Spodoptera frugiperda) cells in 1.5 mls Grace's medium (King and Possee, The Baculovirus Expression System: A Laboratory Guide, Chapman & Hall, London, 1992). After 12 hours, the medium was replaced with 3 mls of Grace's medium containing 10% fetal calf serum. Construct plus DOTAP, linearised virus plus DOTAP and DOTAP only controls were conducted in parallel with transfections. The transfections were harvested 4–5 days after infection and the cells isolated by centrifugation at 500 g for 5 minutes. […]

Experiment [6] relates to Lucilia cuprina LcαE7 (esterase E3) gene product, OP-susceptible allele (LS2). As to conditions: described in PCT/AU 95/00016; cited from earlier work.

In the case of `O=P(Oc1ccccc1)(Oc1ccccc1)Oc1ccccc1` [TPP, triphenylphosphate], the synergism of malathion result is “best synergists” in experiment [1] (listed as triphenylphosphate) and “potent synergism of malathion by TPP” in experiment [1]. For the same compound, in experiment [2], the “residual MCE activity at different preincubation times / completeness of inhibition by TPP” value was “no significant difference between the residual MCE activity at each of the preincubation times”. Moreover, the “turnover of TPP by MCE” value is given as “TPP was not being turned over by MCE” in experiment [2] and “not being turned over” in experiment [3] (TPP 8×10^−8M preincubated 15, 30 or 45 minutes with cell extract). Moreover, the “concentration giving stoichiometric inhibition of MCE activity” value in experiment [3] (expressed product of malathion resistant LcαE7 allele, substrate malathion) is “below 10^−7 M”. Besides, in experiment [4], the “sensitivity of MCE activity to inhibition by TPP” value is “High sensitivity to inhibition by TPP”.
On to `CCOP(=O)(OCC)OC(=CCl)c1ccc(Cl)cc1Cl` [CVP, chlorfenvinphos], for which, in experiment [5], the “turnover, fold less than that of the diazinon resistant (RM2-6) gene product” value is on record as “approximately 50 fold”. The “turnover (hydrolytic activity)” value in experiment [5] (30° C., pH 7.0) is reported as “about 1.2 hour^−1”. Further, in experiment [6], the “CVP / diethyl OP hydrolytic activity” value is given as “undetectable”.
